Data from patent EP4455142A1, “NOVEL INHIBITOR OF QPCTL AND/OR QC” (Scenic Immunology B.V., priority 2023, dated 2024).

How the values were obtained:
[1] = Microsomal stability, human (HLM); format: in vitro ADME; settings: liver microsomes, 0.5 mg protein/mL, 1 µM test compound
Method: (§1) In order to assess metabolic stability of test compounds, commercially acquired CD-1 mouse liver microsome preparations were incubated in 100 µL at a final concentration of 0.5 mg protein/mL, 1 µM test compound, 0.99% methanol and 0.01% DMSO, after a 10 minute pre-incubation at 37°C and addition of 0.1 volumes 10 U/mL NADPH in 10 mM MgCl2. Reactions were stopped by addition of 300 µL cold acetonitrile containing internal standards at t = 0, 5, 10, 20, 30, and 60 minutes. Samples were submitted to LC-MS/MS analysis subsequently and the slope of linear regression of time versus In(% Remaining concentration) was derived to calculate t½ as t½= In(2) /(-Slope). Then Clint(mic) and Clint(liver) were calculated as follows: CLint(mk) = (0.693)/(In vitro T1/2) · (1)/(mg/mL microsomal protein in reaction system) [formula] CLint(liver) = CLint(mic) · (mg microsomes)/(g liver) · (g liver)/(kg body weight) [formula]
The same procedure was performed for human microsomes, SD rat microsomes and (beagle) dog microsomes.
Where 45 mg microsomal protein/g liver and 20 g liver/kg human bodyweight were used as standardized parameters for human microsomes.

human isoQC = biological target: T1, human isoQC (Homo sapiens, UniProt Q9NXS2); assay: Assay 1 - isoQC potency, fluorescent enzymatic assay (H-Gln-AMC, coupled pGAPase detection); format: biochemical; settings: recombinant isoQC, 1 hour at 37°C
T1 construct: The Golgi luminal, enzymatically active region of human isoQC (S53-L382; see, e.g., Huang et al., 2011); GST (with enterokinase site) (N, cleaved yes); made in house; host or cells: E. coli
Description: The Golgi luminal, enzymatically active region of human isoQC (S53-L382; see, e.g., Huang et al., 2011) was obtained by expression in E. coli of an N-terminally GST Enterokinase and C-terminally 6xHis tagged construct in the pET41(+) vector and subsequent purification using Ni-NTA IMAC. Enterokinase digestion ensued, followed by another Ni-NTA IMAC purification, Superdex75 based size exclusion and finally a spin concentration using a 10 kDa molecular weight cutoff. The final protein is formulated in 50 mM Tris-HCl, 150 mM NaCl, 50% Glycerol, pH 7.8.
Pyroglutamylation was measured by conversion of glutamine-4-amino-7-methylcoumarine (H-Gln-AMC, Bachem) to pyroglutamyl-AMC, which is subsequently a specific substrate for pyroglutamylaminopeptidase (pGAPase, Qiagen), releasing free AMC which can be fluorescently detected. For a typical inhibition assay, 7.5 µL aliquots of threefold dilutions of test compound in 50mM Tris pH8 buffer were plated in 384-well plates. 15 µL 20 µM hGln-AMC (diluted from a 40 mM stock dissolved in 25 mM HEPES using 50 mM Tris-HCl 25 pH 8.0) was added to each well. Finally, 7.5 µL, 3 ng/µL recombinant isoQC enzyme was added and the reaction mixture was incubated for 1 hour at 37°C. A 5 minute incubation at 98°C was then performed to denature the isoQC enzyme and stop the reaction.
To detect the amount of pyroglutamyl-AMC formed, a 0.125 U/mL pGAPase enzyme diluted in 50 mM Tris-HCl pH 8.0 containing 10 mM dithiothreitol (DTT) solution was prepared. 25 µL of the pyroglutamylation reaction mixture was transferred into an empty plate and to that, 25 µL of the pGAPase enzyme solution was added. Plates were then incubated for 25 minutes at room temperature before fluorescence readings were taken on an Envision2 plate reader with excitation set at 380 nm and emission at 450 nm. DMSO concentrations during the assay never exceeded 1% and activities were compared to controls containing only the same amount of DMSO and no test compound. Controls were taken along containing pyroglutamylated-AMC (Bachem, dissolved at 10 mM in DMSO) instead of H-Gln-AMC to control for pGAPase inhibition.
IC50 values are calculated using non-linear regression analysis with GraphPad Prism software.

[2] = Microsomal stability, mouse (MLM); format: in vitro ADME, CD-1 mouse; settings: mouse liver microsomes, 0.5 mg protein/mL, 1 µM test compound
Method: as §1
Where 45 mg microsomal protein/g liver and 88 g liver/kg mouse bodyweight were used as standardized parameters for mouse microsomes.

[3] = CACO-2-based cell-permeation and efflux; format: in vitro ADME; settings: human, 2 µM compound, pH 7.40; for Papp A→B at 2 h, 2 µM: Caco-2, pH 7.4, A2B; for Papp B→A at 2 h, 2 µM: Caco-2, pH 7.4, B2A
Method: CACO-2 (ATCC, Manassas, VA, USA) monolayers on polyethylene membranes in 96-well insert plates were incubated for 2 hours in 5% C02, 37°C with 2 µM compound tested bidirectionally in duplicate using HBSS with 10 mM HEPES at pH 7.40 ±0.05 as transport buffer. Final DMSO Concentrations were adjusted to less than 1%. All samples were mixed with acetonitrile containing internal standard and centrifuged at 3220 x g for 10 minutes. Subsequently, 100 µL supernatant solution was diluted with 100 µL distilled water for LC/MS/MS analysis. Lucifer yellow rejection assays were applied after the transport assay to ensure CACO-2 cell monolayer integrity.
The apparent permeability coefficient Papp (cm/s) was calculated using the equation: Papp = (dCr/dt) × Vr/(A×CO) [formula] where dCr/dt is the cumulative concentration of compound in the receiver chamber as a function of time (µM/s); Vr is the solution volume in the receiver chamber (0.075 mL on the apical side, 0.25 mL on the basolateral side); A is the surface area for the transport, i.e., 0.0804 cm^2 or the area of the monolayer; CO is the initial concentration in the donor chamber (µM).

T1 sequence (Q9NXS2 53-382): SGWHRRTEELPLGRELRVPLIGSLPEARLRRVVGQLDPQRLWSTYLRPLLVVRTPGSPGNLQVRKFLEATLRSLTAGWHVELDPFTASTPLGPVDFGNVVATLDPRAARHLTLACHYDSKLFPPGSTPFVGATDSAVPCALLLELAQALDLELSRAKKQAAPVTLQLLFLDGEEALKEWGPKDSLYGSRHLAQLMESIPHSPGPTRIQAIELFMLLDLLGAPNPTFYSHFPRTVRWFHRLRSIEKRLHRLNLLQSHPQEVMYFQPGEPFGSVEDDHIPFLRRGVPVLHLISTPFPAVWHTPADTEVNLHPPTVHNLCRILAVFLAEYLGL

Structure (SMILES) | CLint scaled at 1 µM [1] [mL/min/kg] | IC50 (human isoQC) [nM] | CLint scaled at 1 µM [2] [mL/min/kg] | Papp A→B at 2 h, 2 µM [3] [×10⁻⁶ cm/s] | Papp B→A at 2 h, 2 µM [3] [×10⁻⁶ cm/s]
O=C1OCC(c2ccc(N3CCCC3)cc2)N1c1ccc2[nH]cnc2c1 (single isomer, unassigned) [(18)-ent2] | 73.8 | 23.9 | 488 | 2.8 | 18.8
O=C1OCC(c2ccc(C3CCC(F)(F)CC3)cc2)N1c1ccc2[nH]cnc2c1 (single isomer, unassigned) [(19)-ent2] | 19.7 | 35.8 | 339 | 3.9 | 23.9
O=C1OC[C@H](c2ccc(-c3cnn(C(F)(F)F)c3)cc2F)N1c1ccc2[nH]cnc2c1 [Compound (1)] | < 8.6 | 1.7 | 67.5 | 2 | 21.9
